This note sets out measurements from patent US12065445B2, “CDK2 inhibitors and methods of using the same” (Cedilla Therapeutics, Inc., priority 2021, dated 2024).

Where only a bound is given, the exact number is not on record here.

The term IC50 denotes the midpoint of a concentration-inhibition curve.

In this experiment the test system is Kuramochi cells. In words: BrdU Cell Proliferation Assay. It counts as cell-based. Conditions: read-out: BrdU - KURAMOCHI.1: IC50. Here is the method:
A BrdU assay was used as a measure of proliferation based on the DNA replication process of proliferating cells. BrdU, a pyrimidine analog, is added to the cell culture and incorporated into the DNA of proliferating cells. The presence of the BrdU analog was then measured through a colorimetric ELISA. After fixation and permeabilization of cells, peroxidase-conjugated antibody recognizing BrdU is added and allowed to incubate, followed by thorough washing to remove unbound antibody. In order to quantify the amount of bound antibody, peroxidase substrate is added and produces a color that can be measured at 450 nm.
On day −1, Kuramochi cells (Sekisui XenoTech JCRB0098) were seeded at 2,000 cells/well in columns 2-12 of a 96 well plate (Corning, CLS3596) in 150 μL media and allowed to adhere overnight at 37 degree with 5% CO2.
On day 0, the source plate was prepared by adding 10 mM compounds and performing 3-fold serial dilutions for a 10-point dose response of each compound. Using a multichannel pipette, 2 μL of the contents of the source plate were stamped into an intermediate plate with 500 μL of RPMI 1640 Media, GlutaMAX Supplement (Life Technologies, 61870127) in each well of a Nunc 96 DeepWell™ plate, non-treated 96 DeepWell plate, 2 mL/well, sterile, natural, 60/cs (Sigma Z717274) and mixed thoroughly. 50 μL from each well of this intermediate plate were added to 4 wells of a 96-well plate with previously seeded Kuramochi cells.
On day 4, the plates were developed using the BrdU ELISA Cell Proliferation Assay according to manufacturer's instructions (Roche, 11647229001). Briefly, BrdU was diluted 1:100 in Gibco®, OptiMEM® and 20 μL/well was added, shaken for 10 minutes at 350 rpm, and then returned to the incubator for 1 hour. Following incubation, the medium was discarded, and the cells were fixed by adding 200 μL of Fix/Denature solution. The anti-BrdU peroxidase antibody was diluted 1:1000 in OptiMEM, added at 100 μL/well, and incubated while shaking (350 rpm) for one hour. Three washes with PBS were performed to remove any unbound antibody, followed by the addition of 100 μL of substrate solution to each well. 25 μL/well of 1M sulfuric acid solution was then added to halt the reaction, and plates were read out using an Envision spectrophotometer (Perkin Elmer) set to read 450 nm absorbance. Background absorbance values from empty wells were subtracted from all samples and then normalized to DMSO treated wells.
With `CNC(=O)[C@@H](NC(=O)[C@H]1CN(C(=O)c2cnn(Cc3ccccc3)c2)CC12CN(C(=O)C1(C)CC1)C2)[C@@H](C)OCc1ccccc1` [I-67B], the IC50 was above 10 µM.

On to `CNC(=O)[C@@H](NC(=O)[C@@H]1CN(CC2CCOCC2)CC12CN(C(=O)[C@H]1CC1(C)C)C2)[C@@H](C)OCc1ccccc1` [I-68A], for which the IC50 is above 10 µM.

For `CNC(=O)[C@@H](NC(=O)[C@@H]1CN(C(=O)c2cnn(Cc3ccccc3)c2)CC12CN(C(=O)CC(C)C)C2)[C@@H](C)OCc1ccccc1` [I-69A], the IC50 was above 10 µM.

For the compound `CNC(=O)[C@@H](NC(=O)[C@H]1CN(C(=O)c2cnn(Cc3ccccc3)c2)CC12CN(C(=O)CC(C)C)C2)[C@@H](C)OCc1ccccc1` [I-69B], the concentration for half-maximal inhibition (IC50) was above 10 µM.

Regarding `CNC(=O)[C@@H](NC(=O)[C@@H]1CN(C(=O)C2CCNC2)CC12CN(C(=O)[C@H]1CC1(C)C)C2)[C@@H](C)OCc1ccccc1` (stereo partly drawn) [I-70A, (8S)—N-((2S,3R)-3-(benzyloxy)-1-(methylamino)-1-oxobutan-2-yl)-2-((S)-2,2-dimethylcyclopropane-1-carbonyl)-6-(pyrrolidine-3-carbonyl)-2,6-diazaspiro[3.4]octane-8-carboxamide], the IC50 was above 10 µM.

Consider `CNC(=O)[C@@H](NC(=O)[C@H]1CN(C(=O)C2CCNC2)CC12CN(C(=O)[C@H]1CC1(C)C)C2)[C@@H](C)OCc1ccccc1` (stereo partly drawn) [I-70B], for which the IC50 is above 10 µM.

Regarding `CNC(=O)[C@@H](NC(=O)[C@@H]1CN(C(=O)c2cnn(Cc3ccccc3)c2)CC12CN(C(=O)C1(F)CC1)C2)[C@@H](C)OCc1ccccc1` [I-71A], the IC50 was above 10 µM.

With `CNC(=O)[C@@H](NC(=O)[C@H]1CN(C(=O)c2cnn(Cc3ccccc3)c2)CC12CN(C(=O)C1(F)CC1)C2)[C@@H](C)OCc1ccccc1` [I-71B], the IC50 is above 10 µM.

Consider `CNC(=O)[C@@H](NC(=O)[C@@H]1CN(C(=O)c2c[nH]c3ccccc23)CC12CN(C(=O)[C@H]1CC1(C)C)C2)[C@@H](C)OCc1ccccc1` [I-72A], for which the IC50 is above 10 µM.

Take `CNC(=O)[C@@H](NC(=O)[C@H]1CN(C(=O)c2c[nH]c3ccccc23)CC12CN(C(=O)[C@H]1CC1(C)C)C2)[C@@H](C)OCc1ccccc1` [I-72B]: the IC50 was above 10 µM.

For the compound `CNC(=O)[C@@H](NC(=O)[C@@H]1CN(C(=O)c2cnn(Cc3ccccc3)c2)CC12CN(C(=O)C1(C#N)CC1)C2)[C@@H](C)OCc1ccccc1` [I-73A], the IC50 is above 10 µM.

Regarding `CNC(=O)[C@@H](NC(=O)[C@H]1CN(C(=O)c2cnn(Cc3ccccc3)c2)CC12CN(C(=O)C1(C#N)CC1)C2)[C@@H](C)OCc1ccccc1` [I-73B], the IC50 is above 10 µM.

Take `CCC(CC)C(=O)N1CC2(CN(C(=O)c3cnn(Cc4ccccc4)c3)C[C@H]2C(=O)N[C@H](C(=O)NC)[C@@H](C)OCc2ccccc2)C1` [I-74A]: the IC50 is above 10 µM.

As to `CCC(CC)C(=O)N1CC2(CN(C(=O)c3cnn(Cc4ccccc4)c3)C[C@@H]2C(=O)N[C@H](C(=O)NC)[C@@H](C)OCc2ccccc2)C1` [I-74B], the IC50 is above 10 µM.

As for `CC1(C)C[C@@H]1C(=O)N1CC2(CN(C(=O)c3cnn(Cc4ccccc4)c3)C[C@H]2C(=O)Nc2cccc(Cc3ccccc3)c2)C1` [I-75A], the IC50 is 0.5 to 5 µM.

Consider `CC1(C)C[C@@H]1C(=O)N1CC2(CN(C(=O)c3cnn(Cc4ccccc4)c3)C[C@@H]2C(=O)Nc2cccc(Cc3ccccc3)c2)C1` [I-75B], for which the IC50 was above 10 µM.

Turning to `CNC(=O)[C@@H](NC(=O)[C@@H]1CN(C(=O)c2cnn(Cc3ccccc3)c2)CC12CN(C(=O)C(C)(C)C#N)C2)[C@@H](C)OCc1ccccc1` [I-76A], the IC50 was above 10 µM.

For `CNC(=O)[C@@H](NC(=O)[C@H]1CN(C(=O)c2cnn(Cc3ccccc3)c2)CC12CN(C(=O)C(C)(C)C#N)C2)[C@@H](C)OCc1ccccc1` [I-76B], the IC50 was above 10 µM.

Regarding `CNC(=O)[C@@H](NC(=O)[C@@H]1CN(Cc2cnc[nH]2)CC12CN(C(=O)[C@H]1CC1(C)C)C2)[C@@H](C)OCc1ccccc1` [I-77A, (S)-6-((1H-imidazol-5-yl)methyl)-N-((2S,3R)-3-(benzyloxy)-1-(methylamino)-1-oxobutan-2-yl)-2-((S)-2,2-dimethylcyclopropane-1-carbonyl)-2,6-diazaspiro[3.4]octane-8-carboxamide], the IC50 is above 10 µM.

Take `CNC(=O)[C@@H](NC(=O)[C@H]1CN(Cc2cnc[nH]2)CC12CN(C(=O)[C@H]1CC1(C)C)C2)[C@@H](C)OCc1ccccc1` [I-77B]: the IC50 is above 10 µM.

As to `CNC(=O)[C@@H](NC(=O)[C@@H]1CN(Cc2cnco2)CC12CN(C(=O)[C@H]1CC1(C)C)C2)[C@@H](C)OCc1ccccc1` [I-78A, (S)—N-((2S,3R)-3-(benzyloxy)-1-(methylamino)-1-oxobutan-2-yl)-2-((S)-2,2-dimethylcyclopropane-1-carbonyl)-6-(oxazol-5-ylmethyl)-2,6-diazaspiro[3.4]octane-8-carboxamide], the IC50 was above 10 µM.

In the case of `CNC(=O)[C@@H](NC(=O)[C@H]1CN(Cc2cnco2)CC12CN(C(=O)[C@H]1CC1(C)C)C2)[C@@H](C)OCc1ccccc1` [I-78B], the IC50 was above 10 µM.

As to `CNC(=O)[C@@H](NC(=O)[C@@H]1CN(S(=O)(=O)c2cnn(Cc3ccccc3)c2)CC12CN(C(=O)[C@H]1CC1(C)C)C2)[C@@H](C)OCc1ccccc1` [I-79A], the IC50 was above 10 µM.

Regarding `CNC(=O)[C@@H](NC(=O)[C@H]1CN(S(=O)(=O)c2cnn(Cc3ccccc3)c2)CC12CN(C(=O)[C@H]1CC1(C)C)C2)[C@@H](C)OCc1ccccc1` [I-79B], the IC50 is above 10 µM.

In the case of `CNC(=O)[C@@H](NC(=O)[C@@H]1CN(C(=O)c2cnn(Cc3ccccc3)c2)CC12CN(C(=O)C1(c3ccc(C(C)(C)C)cc3)CC1)C2)[C@@H](C)OCc1ccccc1` [I-80A], the IC50 was above 10 µM.

Turning to `CNC(=O)[C@@H](NC(=O)[C@H]1CN(C(=O)c2cnn(Cc3ccccc3)c2)CC12CN(C(=O)C1(c3ccc(C(C)(C)C)cc3)CC1)C2)[C@@H](C)OCc1ccccc1` [I-80B], the IC50 is above 10 µM.

For `CC1(C)C[C@@H]1C(=O)N1CC2(CN(C(=O)c3cnn(Cc4ccccc4)c3)C[C@@H]2C(=O)Nc2ccc(-c3ccccc3)cc2)C1` [I-81B], the IC50 was 5 to 10 µM.

In the case of `CNC(=O)[C@@H](NC(=O)[C@@H]1CN(C(=O)c2cnn(Cc3ccccc3)c2)CC12CN(C(=O)CC1(COC)CC1)C2)[C@@H](C)OCc1ccccc1` [I-82A], the IC50 was above 10 µM.

`CNC(=O)[C@@H](NC(=O)[C@H]1CN(C(=O)c2cnn(Cc3ccccc3)c2)CC12CN(C(=O)CC1(COC)CC1)C2)[C@@H](C)OCc1ccccc1` [I-82B]: the concentration for half-maximal inhibition (IC50) was above 10 µM.

For the compound `CC1(C)C[C@@H]1C(=O)N1CC2(CN(C(=O)c3cnn(Cc4ccccc4)c3)C[C@H]2C(=O)N[C@H]2CCCN(C(=O)c3ccccc3)C2)C1` [I-83A], the IC50 is above 10 µM.

Regarding `CC1(C)C[C@@H]1C(=O)N1CC2(CN(C(=O)c3cnn(Cc4ccccc4)c3)C[C@@H]2C(=O)N[C@H]2CCCN(C(=O)c3ccccc3)C2)C1` [I-83B], the IC50 is above 10 µM.

Regarding `CC1(C)C[C@@H]1C(=O)N1CC2(CN(C(=O)c3cnn(Cc4ccccc4)c3)C[C@@H]2C(=O)Nc2ccc(Cc3ccccc3)cc2)C1` [I-84B], the IC50 was 5 to 10 µM.

Regarding `C[C@@H](OCc1ccccc1)[C@H](NC(=O)C1CN(C(=O)c2cnn(Cc3ccccc3)c2)CC12CN(C(=O)[C@H]1CC1(C)C)C2)C(=O)N1CCC(F)(F)CC1` (stereo partly drawn) [I-85], the IC50 was 0.5 to 5 µM.

As to `C[C@@H](OCc1ccccc1)[C@H](NC(=O)C1CN(C(=O)c2cnn(Cc3ccccc3)c2)CC12CN(C(=O)[C@H]1CC1(C)C)C2)C(=O)N1CCOCC1` (stereo partly drawn) [I-86], the IC50 was above 10 µM.

Turning to `CNC(=O)[C@@H](NC(=O)[C@@H]1CN(C(=O)c2cnn(Cc3ccccc3)c2)CC12CN(C(=O)CC(F)(F)F)C2)[C@@H](C)OCc1ccccc1` [I-87A], the IC50 was above 10 µM.

`CNC(=O)[C@@H](NC(=O)[C@H]1CN(C(=O)c2cnn(Cc3ccccc3)c2)CC12CN(C(=O)CC(F)(F)F)C2)[C@@H](C)OCc1ccccc1` [I-87B]: the IC50 was above 10 µM.

In the case of `CNC(=O)[C@@H](NC(=O)[C@@H]1CN(C(=O)c2cnn(Cc3ccccc3)c2)CC12CN(C(=O)[C@H]1CC1(C)C)C2)[C@@H](C)O` [I-88A, (S)-6-(1-benzyl-1H-pyrazole-4-carbonyl)-2-((S)-2,2-dimethylcyclopropane-1-carbonyl)-N-((2S,3R)-3-hydroxy-1-(methylamino)-1-oxobutan-2-yl)-2,6-diazaspiro[3.4]octane-8-carboxamide], the IC50 is above 10 µM.

In the case of `CNC(=O)[C@@H](NC(=O)[C@H]1CN(C(=O)c2cnn(Cc3ccccc3)c2)CC12CN(C(=O)C1CC1(C)C)C2)[C@@H](C)O` (stereo partly drawn) [I-88B], the IC50 was above 10 µM.

Regarding `CNC(=O)[C@@H](NC(=O)[C@@H]1CN(C(=O)c2cnn(Cc3ccccc3)c2)CC12CN(C(=O)C1C(C)(C)C1(C)C)C2)[C@@H](C)OCc1ccccc1` [I-89A], the IC50 was above 10 µM.
